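Values below derive from 48-hour exposures of cells grown in 96-well plates, with endpoints linearly interpolated between the two concentrations bracketing the appropriate inhibition level. Here, GI50 denotes the concentration required for 50% inhibition of growth. TGI is the concentration that stops growth completely.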
Legend:
Experiment in all cases: NCI-60 cell line screen, 48 h
[1] = system: 786-0 renal
[2] = system: A498 renal
[3] = system: A549 NSCLC
[4] = system: ACHN renal
[5] = system: BT-549 breast
[6] = system: CAKI-1 renal
[7] = system: CCRF-CEM leukemia
[8] = system: COLO 205 colon
[9] = system: DU-145 prostate
[10] = system: EKVX NSCLC
[11] = system: HCC-2998 colon
[12] = system: HCT-116 colon
[13] = system: HCT-15 colon
[14] = system: HL-60(TB) leukemia
[15] = system: HOP-62 NSCLC
[16] = system: HOP-92 NSCLC
[17] = system: HS 578T breast
[18] = system: HT29 colon
[19] = system: IGROV1 ovarian
[20] = system: K-562 leukemia
[21] = system: KM12 colon
[22] = system: LOX IMVI melanoma
[23] = system: M14 melanoma
[24] = system: MALME-3M melanoma
[25] = system: MCF7 breast
[26] = system: MDA-MB-231 breast
[27] = system: MDA-MB-435
[28] = system: MDA-MB-468 breast
[29] = system: MOLT-4 leukemia
[30] = system: NCI-H226 lung
[31] = system: NCI-H23 lung
[32] = system: NCI-H460 lung
[33] = system: NCI-H522 lung
[34] = system: NCI/ADR-RES ovarian
[35] = system: OVCAR-3 ovarian
[36] = system: OVCAR-4 ovarian
[37] = system: OVCAR-5 ovarian
[38] = system: OVCAR-8 ovarian
[39] = system: PC-3 prostate
[40] = system: RPMI-8226 leukemia
[41] = system: RXF 393 renal
[42] = system: SF-268 CNS
[43] = system: SF-295 CNS
[44] = system: SF-539 CNS
[45] = system: SK-MEL-2 melanoma
[46] = system: SK-MEL-28 melanoma
[47] = system: SK-MEL-5 melanoma
[48] = system: SK-OV-3 ovarian
[49] = system: SN12C renal
[50] = system: SNB-19 CNS
[51] = system: SNB-75 CNS
[52] = system: SR leukemia
[53] = system: SW-620 colon
[54] = system: T-47D breast
[55] = system: TK-10 renal
[56] = system: U251 CNS
[57] = system: UACC-257 melanoma
[58] = system: UACC-62 melanoma
[59] = system: UO-31 renal

COc1cc2c3c(n(CCCNCCO)c(=O)c2cc1OC)-c1nc2c(cc1C3=O)OCO2
GI50 [1]: 2.43 µM
TGI [1]: 11.8 µM
GI50 [2]: 13.4 µM
TGI [2]: 27.2 µM
GI50 [3]: 6.72 µM
TGI [3]: 21.6 µM
GI50 [4]: 3.46 µM
TGI [4]: 14 µM
GI50 [5]: 6.31 µM
TGI [5]: 20.5 µM
GI50 [6]: 2.39 µM
TGI [6]: 16.5 µM
GI50 [7]: 0.262 µM
TGI [7]: 1.86 µM
GI50 [8]: 5.88 µM
TGI [8]: 21.9 µM
GI50 [9]: 2.71 µM
TGI [9]: 14.1 µM
GI50 [10]: 7.47 µM
TGI [10]: 21.2 µM
GI50 [11]: 2.14 µM
TGI [11]: 13.2 µM
GI50 [12]: 1.25 µM
TGI [12]: 2.67 µM
GI50 [13]: 9.17 µM
TGI [13]: 27.9 µM
GI50 [14]: 0.64 µM
TGI [14]: 12.2 µM
GI50 [15]: 0.416 µM
TGI [15]: 4.48 µM
GI50 [16]: 9.2 µM
TGI [16]: 23.3 µM
GI50 [17]: 11.6 µM
TGI [17]: 31.6 µM
GI50 [18]: 2.69 µM
TGI [18]: 11.3 µM
GI50 [19]: 11.4 µM
TGI [19]: 26.2 µM
GI50 [20]: 1.56 µM
TGI [20]: 15 µM
GI50 [21]: 14.2 µM
TGI [21]: 33.2 µM
GI50 [22]: 0.534 µM
TGI [22]: 1.98 µM
GI50 [23]: 4.35 µM
TGI [23]: 16.8 µM
GI50 [24]: 5.08 µM
TGI [24]: 19.6 µM
GI50 [25]: 0.256 µM
TGI [25]: 8.62 µM
GI50 [26]: 11.3 µM
TGI [26]: 24.5 µM
GI50 [27]: 8.89 µM
TGI [27]: 22.5 µM
GI50 [28]: 1.41 µM
TGI [28]: 3.21 µM
GI50 [29]: 0.364 µM
TGI [29]: 34.8 µM
GI50 [30]: 1.54 µM
TGI [30]: 6.62 µM
GI50 [31]: 0.582 µM
TGI [31]: 3.27 µM
GI50 [32]: 1.22 µM
TGI [32]: 11.8 µM
GI50 [33]: 0.886 µM
TGI [33]: 3.04 µM
GI50 [34]: 58.1 µM
TGI [34]: > 100 µM
GI50 [35]: 5.65 µM
TGI [35]: 20.8 µM
GI50 [36]: 13 µM
TGI [36]: 49.5 µM
GI50 [37]: 4.39 µM
TGI [37]: 15.4 µM
GI50 [38]: 3.61 µM
TGI [38]: 17.9 µM
GI50 [39]: 3.06 µM
TGI [39]: 19.1 µM
GI50 [40]: 2.54 µM
TGI [40]: 14.8 µM
GI50 [41]: 1.83 µM
TGI [41]: 7.21 µM
GI50 [42]: 3.24 µM
TGI [42]: 19.9 µM
GI50 [43]: 0.702 µM
TGI [43]: 12 µM
GI50 [44]: 0.996 µM
TGI [44]: 3.24 µM
GI50 [45]: 17.7 µM
TGI [45]: 33 µM
GI50 [46]: 13.5 µM
TGI [46]: 26.9 µM
GI50 [47]: 1.54 µM
TGI [47]: 10.5 µM
GI50 [48]: 3.27 µM
TGI [48]: 12.4 µM
GI50 [49]: 3.94 µM
TGI [49]: 16.4 µM
GI50 [50]: 2.52 µM
TGI [50]: 14.6 µM
GI50 [51]: 0.83 µM
TGI [51]: 28.2 µM
GI50 [52]: 0.624 µM
TGI [52]: 11.3 µM
GI50 [53]: 2.01 µM
TGI [53]: 16.8 µM
GI50 [54]: 1.13 µM
TGI [54]: 12.9 µM
GI50 [55]: 19 µM
TGI [55]: 46 µM
GI50 [56]: 0.82 µM
TGI [56]: 10.7 µM
GI50 [57]: 15.4 µM
TGI [57]: 31.2 µM
GI50 [58]: 2.38 µM
TGI [58]: 12.8 µM
GI50 [59]: 7.47 µM
TGI [59]: 21.7 µM

— PubChem BioAssay (NCI)
